Experimental data as given in paper PMC10683025, “Discovery of a Hydroxylamine-Based Brain-Penetrant EGFR Inhibitor for Metastatic Non-Small-Cell Lung Cancer” (Journal of Medicinal Chemistry, 2023).

What was measured:
[1] = molecular target: T1, BRAF(V600E) (Homo sapiens, UniProt P15056, V600E); assay: KINOMEScan; format: binding; details: read-out: Percent Control
T1 construct: purchased Eurofins DiscoverX (KINOMEscan)
Source text: (§2) Percent control was mapped onto the kinome tree using TREEspot.

[2] = molecular target: T2, ASK1 (Homo sapiens, UniProt Q99683); assay: KINOMEScan; format: binding; details: ASK1, 1 µM; read-out: Percent Control
T2 construct: purchased Eurofins DiscoverX (KINOMEscan)

[3] = molecular target: T3, ABL1(H396P)-nonphosphorylated (Homo sapiens, UniProt P00519, H396P); assay: KINOMEScan; format: binding; details: read-out: Percent Control
T3 construct: purchased Eurofins DiscoverX
Source text: as §2

[4] = Metabolic stability in hepatocytes; format: in vitro ADME, cynomolgus monkey; details: for Remaining Percentages: monkey hepatocytes
Method: Microsome stability was assessed in duplicate (n = 2) in the presence and absence of nicotinamide adenine dinucleotide phosphate (NADPH) with liver microsomes (0.5 mg/mL) from human (BD Gentest) and Sprague-Dawley rats (BD Gentest). Compounds were incubated in liver microsomes at 1 μM and samples (30 μL) were taken at 0.5, 15, 30, 45, and 60 min time points for analysis by LC-MS/MS. Hepatocyte stability was assessed in duplicate (n = 2) at a working cell density of 0.5 × 10^6 cells/mL with hepatocytes from human (BiolVT), Sprague-Dawley rat (BiolVT), cynomolgus monkey (RILD) or beagle dog (BiolVT). […] The in vitro half-life and intrinsic clearances were determined as previously described.[76]
In vitro half-life (in vitro t1/2) was determined from the slope value in [drawing 1] where k was determined by linear regression of the natural logarithm of the remaining percentage of the parent drug vs the incubation time curve.

[5] = molecular target: T4, AAK1 (Homo sapiens, UniProt Q2M2I8); assay: KINOMEScan; format: binding; details: AAK1, 1 µM; read-out: Percent Control
T4 construct: purchased Eurofins DiscoverX
T4 sequence (Q2M2I8 whole entry): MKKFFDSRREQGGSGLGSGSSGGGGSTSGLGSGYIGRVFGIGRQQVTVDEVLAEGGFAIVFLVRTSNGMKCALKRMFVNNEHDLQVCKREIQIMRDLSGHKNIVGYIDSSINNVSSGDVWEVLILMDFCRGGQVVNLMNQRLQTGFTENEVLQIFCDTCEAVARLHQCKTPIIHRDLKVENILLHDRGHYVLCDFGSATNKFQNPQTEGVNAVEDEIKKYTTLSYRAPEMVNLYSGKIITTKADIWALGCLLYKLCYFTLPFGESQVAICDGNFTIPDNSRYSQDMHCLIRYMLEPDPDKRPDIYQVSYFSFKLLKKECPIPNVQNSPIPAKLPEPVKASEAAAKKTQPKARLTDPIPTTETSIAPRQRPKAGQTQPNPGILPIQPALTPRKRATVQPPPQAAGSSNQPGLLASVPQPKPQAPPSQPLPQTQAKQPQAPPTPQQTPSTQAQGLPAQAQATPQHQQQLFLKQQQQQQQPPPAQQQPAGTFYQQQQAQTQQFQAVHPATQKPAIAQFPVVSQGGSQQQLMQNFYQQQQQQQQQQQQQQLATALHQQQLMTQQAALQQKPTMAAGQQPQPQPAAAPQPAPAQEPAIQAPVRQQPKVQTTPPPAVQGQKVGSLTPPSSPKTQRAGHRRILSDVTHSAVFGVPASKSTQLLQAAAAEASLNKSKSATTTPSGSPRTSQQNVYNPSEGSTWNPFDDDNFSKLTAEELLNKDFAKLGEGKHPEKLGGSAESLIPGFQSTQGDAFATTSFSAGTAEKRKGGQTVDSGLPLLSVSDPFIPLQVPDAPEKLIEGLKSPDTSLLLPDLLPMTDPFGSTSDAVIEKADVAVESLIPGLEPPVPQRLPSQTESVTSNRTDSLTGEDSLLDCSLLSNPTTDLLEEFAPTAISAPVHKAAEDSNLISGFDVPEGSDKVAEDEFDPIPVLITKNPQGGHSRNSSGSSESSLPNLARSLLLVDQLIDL
Source text: as §2

[6] = molecular target: T5, ABL1(T315I)-phosphorylated (Homo sapiens, UniProt P00519, T315I); assay: KINOMEScan; format: binding; details: read-out: Percent Control
T5 construct: purchased Eurofins DiscoverX
Source text: as §2

[7] = molecular target: T6, ALK (Homo sapiens, UniProt Q9UM73); assay: KINOMEScan; format: binding; details: read-out: Percent Control
T6 construct: purchased Eurofins DiscoverX (KINOMEscan)
T6 sequence (Q9UM73 19-1620): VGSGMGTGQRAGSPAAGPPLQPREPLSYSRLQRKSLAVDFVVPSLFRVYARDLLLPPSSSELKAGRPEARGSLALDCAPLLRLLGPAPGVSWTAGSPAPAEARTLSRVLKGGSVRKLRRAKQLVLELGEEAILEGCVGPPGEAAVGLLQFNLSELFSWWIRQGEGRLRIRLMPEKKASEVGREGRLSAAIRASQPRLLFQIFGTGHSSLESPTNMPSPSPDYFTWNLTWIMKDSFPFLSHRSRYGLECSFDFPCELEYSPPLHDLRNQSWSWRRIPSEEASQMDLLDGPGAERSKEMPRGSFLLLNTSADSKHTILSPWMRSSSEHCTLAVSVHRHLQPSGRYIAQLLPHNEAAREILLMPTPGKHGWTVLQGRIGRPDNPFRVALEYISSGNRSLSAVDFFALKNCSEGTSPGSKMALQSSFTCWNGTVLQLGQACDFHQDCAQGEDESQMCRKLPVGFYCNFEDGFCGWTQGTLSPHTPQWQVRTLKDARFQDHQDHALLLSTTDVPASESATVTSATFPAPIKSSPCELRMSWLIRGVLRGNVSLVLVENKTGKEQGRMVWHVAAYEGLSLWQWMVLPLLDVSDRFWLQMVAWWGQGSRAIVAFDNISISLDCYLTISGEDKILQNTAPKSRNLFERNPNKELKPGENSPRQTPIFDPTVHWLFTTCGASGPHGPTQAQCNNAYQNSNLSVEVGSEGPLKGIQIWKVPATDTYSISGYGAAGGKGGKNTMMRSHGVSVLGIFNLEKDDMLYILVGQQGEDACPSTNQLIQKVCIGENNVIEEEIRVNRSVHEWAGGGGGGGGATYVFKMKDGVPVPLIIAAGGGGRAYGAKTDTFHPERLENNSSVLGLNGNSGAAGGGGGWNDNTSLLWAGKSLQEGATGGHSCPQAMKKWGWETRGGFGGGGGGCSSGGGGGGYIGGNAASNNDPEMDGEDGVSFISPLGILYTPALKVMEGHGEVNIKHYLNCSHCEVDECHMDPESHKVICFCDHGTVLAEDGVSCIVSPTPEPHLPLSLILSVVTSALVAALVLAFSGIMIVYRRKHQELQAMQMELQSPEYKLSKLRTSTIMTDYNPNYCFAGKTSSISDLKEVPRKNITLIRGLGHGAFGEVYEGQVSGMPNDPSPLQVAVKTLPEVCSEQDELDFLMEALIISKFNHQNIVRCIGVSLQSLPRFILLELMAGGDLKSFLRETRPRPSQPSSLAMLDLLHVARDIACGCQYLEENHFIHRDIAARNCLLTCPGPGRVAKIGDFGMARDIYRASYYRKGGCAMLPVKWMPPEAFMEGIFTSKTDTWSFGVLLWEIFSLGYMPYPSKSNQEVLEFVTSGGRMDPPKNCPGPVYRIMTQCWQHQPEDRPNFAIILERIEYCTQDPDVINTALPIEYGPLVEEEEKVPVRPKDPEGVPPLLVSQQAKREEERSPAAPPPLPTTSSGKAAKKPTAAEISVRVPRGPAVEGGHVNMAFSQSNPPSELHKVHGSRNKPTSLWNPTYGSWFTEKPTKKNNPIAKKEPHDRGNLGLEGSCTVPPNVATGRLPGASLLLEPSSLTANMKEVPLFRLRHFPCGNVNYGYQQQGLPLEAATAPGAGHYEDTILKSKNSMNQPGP
Source text: as §2

[8] = molecular target: T7, AMPK-alpha2 (Homo sapiens, UniProt P54646); assay: KINOMEScan; format: binding; details: AMPK-alpha2, 1 µM; read-out: Percent Control
T7 construct: purchased Eurofins DiscoverX (KINOMEscan)
T7 sequence (P54646 whole entry): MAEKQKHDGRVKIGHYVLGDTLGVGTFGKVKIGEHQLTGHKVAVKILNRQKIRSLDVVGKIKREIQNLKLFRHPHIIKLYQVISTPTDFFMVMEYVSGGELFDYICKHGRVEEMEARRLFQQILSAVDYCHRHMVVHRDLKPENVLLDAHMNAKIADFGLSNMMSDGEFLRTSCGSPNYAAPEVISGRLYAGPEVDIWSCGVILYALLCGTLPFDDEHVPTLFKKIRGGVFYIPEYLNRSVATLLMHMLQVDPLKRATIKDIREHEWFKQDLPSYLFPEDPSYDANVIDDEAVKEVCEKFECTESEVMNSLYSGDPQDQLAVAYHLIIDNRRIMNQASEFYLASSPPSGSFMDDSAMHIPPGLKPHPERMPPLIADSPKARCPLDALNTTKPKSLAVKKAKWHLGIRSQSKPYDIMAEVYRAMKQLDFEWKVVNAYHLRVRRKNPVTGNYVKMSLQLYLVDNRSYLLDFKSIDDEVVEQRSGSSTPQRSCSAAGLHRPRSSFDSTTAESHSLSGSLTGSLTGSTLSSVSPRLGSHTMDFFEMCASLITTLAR
Source text: as §2

[9] = molecular target: T8, ABL1(F317I)-nonphosphorylated (Homo sapiens, UniProt P00519, F317I); assay: KINOMEScan; format: binding; details: read-out: Percent Control
T8 construct: purchased Eurofins DiscoverX
Source text: as §2

[10] = test system: TA1535; assay: Background bacterial cytotoxicity assay; parameters: species or system Salmonella; key to Flag: A cytotoxicity value of less than 60% is flagged and the compound is considered as toxic (denoted as Cytox.); A hyphen (-) denotes no cytotoxicity at the respective concentration
Method: (§1) Compounds were assessed for mutagenicity at the Eurofins Panlabs in 384-well plates using four Salmonella strains: TA98, to probe for frameshift mutation (with quercetin as control), TA100 and TA1535, to probe for base pair insertions/deletions (with streptozotocin as control), and TA1537, to probe for frameshift mutations (with aminacridine as control) as previously described.[78] Each compound was incubated at 37 °C for 96 h at four different concentrations (5, 10, 50, and 100 μM), with each concentration tested using 48 replicates, both with and without rat liver S9 metabolic activation. A concurrent bacterial cytotoxicity assay was run at 0.6, 1.2, 2.5, 5, 10, 25, 50, and 100 μM to rule out false negatives. Bacterial cytotoxicity was expressed as percent of control growth (OD650). Compounds with growth of less than 60% control were flagged and considered bacterial cytotoxic. […] Significances of the positive counts between the treatment and control were determined using a one-tailed Fisher’s exact test.

[11] = test system: TA1537; assay: Background bacterial cytotoxicity assay; parameters: species or system Salmonella; key to Flag: A cytotoxicity value of less than 60% is flagged and the compound is considered as toxic (denoted as Cytox.); A hyphen (-) denotes no cytotoxicity at the respective concentration
Method: as §1

[12] = test system: TA100; assay: Background bacterial cytotoxicity assay; parameters: species or system Salmonella; key to Flag: A cytotoxicity value of less than 60% is flagged and the compound is considered as toxic (denoted as Cytox.); A hyphen (-) denotes no cytotoxicity at the respective concentration
Method: as §1

[13] = test system: TA98; assay: Background bacterial cytotoxicity assay; parameters: species or system Salmonella; key to Flag: A cytotoxicity value of less than 60% is flagged and the compound is considered as toxic (denoted as Cytox.); A hyphen (-) denotes no cytotoxicity at the respective concentration
Method: as §1

[14] = molecular target: T9, YES (Homo sapiens, UniProt P07947); assay: KINOMEScan; format: binding; details: read-out: Percent Control
T9 construct: purchased Eurofins DiscoverX (KINOMEScan service)
T9 sequence (P07947 whole entry): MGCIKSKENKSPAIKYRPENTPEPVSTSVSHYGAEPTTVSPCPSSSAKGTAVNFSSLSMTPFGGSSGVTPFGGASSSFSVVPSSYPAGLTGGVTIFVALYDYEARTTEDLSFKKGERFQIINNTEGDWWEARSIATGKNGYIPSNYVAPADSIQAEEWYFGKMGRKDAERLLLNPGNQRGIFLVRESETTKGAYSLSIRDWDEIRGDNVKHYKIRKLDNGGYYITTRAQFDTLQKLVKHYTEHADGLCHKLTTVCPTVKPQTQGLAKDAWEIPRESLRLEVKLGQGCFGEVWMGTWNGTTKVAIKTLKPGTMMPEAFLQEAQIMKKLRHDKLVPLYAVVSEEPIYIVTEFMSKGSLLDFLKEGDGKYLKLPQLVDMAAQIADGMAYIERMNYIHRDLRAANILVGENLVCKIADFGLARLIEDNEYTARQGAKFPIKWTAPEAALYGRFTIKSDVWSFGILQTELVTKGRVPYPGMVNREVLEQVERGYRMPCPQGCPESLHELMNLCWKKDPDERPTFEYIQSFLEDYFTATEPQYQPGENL

[15] = molecular target: T10, WNK1 (Homo sapiens, UniProt Q9H4A3); assay: KINOMEScan; format: binding; details: WNK1, 1 µM; read-out: Percent Control
T10 construct: purchased Eurofins DiscoverX
Source text: as §2

[16] = molecular target: T11, BMX (Homo sapiens, UniProt P51813); assay: KINOMEScan; format: binding; details: read-out: Percent Control
T11 construct: purchased Eurofins DiscoverX (KINOMEscan)
T11 sequence (P51813 whole entry): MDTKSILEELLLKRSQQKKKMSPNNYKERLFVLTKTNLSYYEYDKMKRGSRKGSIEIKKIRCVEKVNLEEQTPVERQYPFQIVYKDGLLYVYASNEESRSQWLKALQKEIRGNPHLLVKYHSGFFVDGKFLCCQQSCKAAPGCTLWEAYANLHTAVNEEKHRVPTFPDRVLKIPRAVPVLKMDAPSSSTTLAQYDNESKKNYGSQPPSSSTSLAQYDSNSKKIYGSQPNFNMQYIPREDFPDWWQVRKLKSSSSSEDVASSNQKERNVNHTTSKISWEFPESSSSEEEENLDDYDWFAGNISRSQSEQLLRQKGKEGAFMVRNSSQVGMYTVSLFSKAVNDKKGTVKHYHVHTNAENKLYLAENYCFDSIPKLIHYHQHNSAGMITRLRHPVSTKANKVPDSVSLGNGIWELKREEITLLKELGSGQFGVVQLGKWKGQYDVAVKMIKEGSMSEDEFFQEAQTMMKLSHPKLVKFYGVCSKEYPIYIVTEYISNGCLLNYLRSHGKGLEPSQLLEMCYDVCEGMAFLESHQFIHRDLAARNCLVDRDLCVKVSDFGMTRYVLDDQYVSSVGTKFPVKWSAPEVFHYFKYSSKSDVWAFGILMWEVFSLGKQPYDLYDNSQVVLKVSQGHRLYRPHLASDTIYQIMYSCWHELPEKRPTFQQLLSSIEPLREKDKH
Source text: as §2

T1 sequence (P15056 whole entry V600E): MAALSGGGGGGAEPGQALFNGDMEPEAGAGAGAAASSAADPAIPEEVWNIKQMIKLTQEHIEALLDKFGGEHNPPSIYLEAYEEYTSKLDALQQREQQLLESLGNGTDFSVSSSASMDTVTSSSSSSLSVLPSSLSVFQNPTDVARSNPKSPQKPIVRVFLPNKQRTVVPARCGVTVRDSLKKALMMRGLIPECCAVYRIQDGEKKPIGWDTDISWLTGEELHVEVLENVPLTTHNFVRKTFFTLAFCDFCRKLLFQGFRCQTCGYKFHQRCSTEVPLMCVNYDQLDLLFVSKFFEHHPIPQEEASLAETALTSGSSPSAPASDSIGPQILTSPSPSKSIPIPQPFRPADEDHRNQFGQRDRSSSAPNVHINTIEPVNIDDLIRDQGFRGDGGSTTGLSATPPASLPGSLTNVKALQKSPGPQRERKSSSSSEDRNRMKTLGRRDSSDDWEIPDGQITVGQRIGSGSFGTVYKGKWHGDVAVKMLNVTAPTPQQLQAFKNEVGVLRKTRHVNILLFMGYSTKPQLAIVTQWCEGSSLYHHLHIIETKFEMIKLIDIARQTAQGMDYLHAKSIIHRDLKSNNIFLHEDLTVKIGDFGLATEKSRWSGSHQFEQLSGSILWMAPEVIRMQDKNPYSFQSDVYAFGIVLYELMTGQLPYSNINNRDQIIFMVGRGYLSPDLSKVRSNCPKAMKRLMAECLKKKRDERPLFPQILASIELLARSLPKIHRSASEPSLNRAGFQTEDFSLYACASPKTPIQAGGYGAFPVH

COc1cc2ncnc(Nc3cccc(Cl)c3F)c2cc1OCCON1CCN(C)CC1 [Compound 9, N-(3-Chloro-2-fluorophenyl)-7-methoxy-6-(2-((4-methylpiperazin-1-yl)oxy)ethoxy)quinazolin-4-amine]
remaining binding at 1 µM [1]: 82% | remaining binding at 1 µM [2]: 100% | remaining binding at 1 µM [3]: 1% | hepatocyte CLint at 2 h, 1 µM ([4]; cynomolgus monkey, hepatocytes): 29 µL/min/1e6 cells | Remaining Percentages ([4]; 15 min): 49.08% | Remaining Percentages ([4]; 30 min): 30.35% | Remaining Percentages ([4]; 60 min): 13.17% | Remaining Percentages ([4]; 90 min): 4.27% | Remaining Percentages ([4]; 120 min): BLOD | remaining binding at 1 µM [5]: 92% | remaining binding at 1 µM [6]: 30% | remaining binding at 1 µM [7]: 89% | remaining binding at 1 µM [8]: 97% | remaining binding at 1 µM [9]: 54% | Flag ([10]; TA1535-S9, 1.0E-04 M): - | Mean % Control (n = 3) ([10]; TA1535-S9, 1.0E-04 M): 78.4% | Flag ([10]; TA1535-S9, 1.0E-05 M): - | Mean % Control (n = 3) ([10]; TA1535-S9, 1.0E-05 M): 99.4% | Flag ([10]; TA1535-S9, 1.2E-06 M): - | Mean % Control (n = 3) ([10]; TA1535-S9, 1.2E-06 M): 120.4% | Flag ([10]; TA1535-S9, 2.5E-05 M): - | Mean % Control (n = 3) ([10]; TA1535-S9, 2.5E-05 M): 97.6% | Flag ([10]; TA1535-S9, 2.5E-06 M): - | Mean % Control (n = 3) ([10]; TA1535-S9, 2.5E-06 M): 101.2% | Flag ([10]; TA1535-S9, 5.0E-05 M): - | Mean % Control (n = 3) ([10]; TA1535-S9, 5.0E-05 M): 85.7% | Flag ([10]; TA1535-S9, 5.0E-06 M): - | Mean % Control (n = 3) ([10]; TA1535-S9, 5.0E-06 M): 108.1% | Flag ([10]; TA1535-S9, 6.0E-07 M): - | Mean % Control (n = 3) ([10]; TA1535-S9, 6.0E-07 M): 98.9% | Flag ([11]; TA1537-S9, 1.0E-04 M): - | Mean % Control (n = 3) ([11]; TA1537-S9, 1.0E-04 M): 60.3% | Flag ([11]; TA1537-S9, 1.0E-05 M): - | Mean % Control (n = 3) ([11]; TA1537-S9, 1.0E-05 M): 88.7% | Flag ([11]; TA1537-S9, 1.2E-06 M): - | Mean % Control (n = 3) ([11]; TA1537-S9, 1.2E-06 M): 98.4% | Flag ([11]; TA1537-S9, 2.5E-05 M): - | Mean % Control (n = 3) ([11]; TA1537-S9, 2.5E-05 M): 83.8% | Flag ([11]; TA1537-S9, 2.5E-06 M): - | Mean % Control (n = 3) ([11]; TA1537-S9, 2.5E-06 M): 90.5% | Flag ([11]; TA1537-S9, 5.0E-05 M): - | Mean % Control (n = 3) ([11]; TA1537-S9, 5.0E-05 M): 71.1% | Flag ([11]; TA1537-S9, 5.0E-06 M): - | Mean % Control (n = 3) ([11]; TA1537-S9, 5.0E-06 M): 98.8% | Flag ([11]; TA1537-S9, 6.0E-07 M): - | Mean % Control (n = 3) ([11]; TA1537-S9, 6.0E-07 M): 101.7% | Flag ([12]; TA100-S9, 1.0E-04 M): Cytox. (A cytotoxicity value of less than 60% is flagged and the compound is considered as toxic (denoted as Cytox.)) | Mean % Control (n = 3) ([12]; TA100-S9, 1.0E-04 M): 34.0% | Flag ([12]; TA100-S9, 1.0E-05 M): - | Mean % Control (n = 3) ([12]; TA100-S9, 1.0E-05 M): 90.3% | Flag ([12]; TA100-S9, 1.2E-06 M): - | Mean % Control (n = 3) ([12]; TA100-S9, 1.2E-06 M): 91.2% | Flag ([12]; TA100-S9, 2.5E-05 M): - | Mean % Control (n = 3) ([12]; TA100-S9, 2.5E-05 M): 80.9% | Flag ([12]; TA100-S9, 2.5E-06 M): - | Mean % Control (n = 3) ([12]; TA100-S9, 2.5E-06 M): 89.5% | Flag ([12]; TA100-S9, 5.0E-05 M): - | Mean % Control (n = 3) ([12]; TA100-S9, 5.0E-05 M): 67.3% | Flag ([12]; TA100-S9, 5.0E-06 M): - | Mean % Control (n = 3) ([12]; TA100-S9, 5.0E-06 M): 93.2% | Flag ([12]; TA100-S9, 6.0E-07 M): - | Mean % Control (n = 3) ([12]; TA100-S9, 6.0E-07 M): 91.6% | Flag ([13]; TA98-S9, 1.0E-04 M): - | Mean % Control (n = 3) ([13]; TA98-S9, 1.0E-04 M): 84.2% | Flag ([13]; TA98-S9, 1.0E-05 M): - | Mean % Control (n = 3) ([13]; TA98-S9, 1.0E-05 M): 91.1% | Flag ([13]; TA98-S9, 1.2E-06 M): - | Mean % Control (n = 3) ([13]; TA98-S9, 1.2E-06 M): 92.3% | Flag ([13]; TA98-S9, 2.5E-05 M): - | Mean % Control (n = 3) ([13]; TA98-S9, 2.5E-05 M): 94.8% | Flag ([13]; TA98-S9, 2.5E-06 M): - | Mean % Control (n = 3) ([13]; TA98-S9, 2.5E-06 M): 91.7% | Flag ([13]; TA98-S9, 5.0E-05 M): - | Mean % Control (n = 3) ([13]; TA98-S9, 5.0E-05 M): 87.8% | Flag ([13]; TA98-S9, 5.0E-06 M): - | Mean % Control (n = 3) ([13]; TA98-S9, 5.0E-06 M): 95.7% | Flag ([13]; TA98-S9, 6.0E-07 M): - | Mean % Control (n = 3) ([13]; TA98-S9, 6.0E-07 M): 89.0% | remaining binding at 1 µM [14]: 59% | remaining binding at 1 µM [15]: 100% | remaining binding at 1 µM [16]: 93%
